Source: patent US6124269A, “2-Halo-6-O-substituted ketolide derivatives” (priority 1998, dated 2000)
≈ marks a conversion by molar mass, not a printed value.

Assays:
Type in all cases: cell-based
[1] = tested on: Streptococcus pneumoniae 5979; experiment: In vitro agar dilution MIC, organism code ZZ; details: Table 1B, unit assumed
In short: (§1)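 A same-class reference antibiotic with known susceptibility was run alongside as a control for test-to-test comparability. Test compound was incorporated into BHI agar at twelve successive dilutions, spot-inoculated, incubated 20-24 h at 35-37° C, and MIC scored visually.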

[2] = tested on: Staphylococcus aureus ATCC 6538P; experiment: In vitro agar dilution MIC, organism code AA; details: Table 1B, unit assumed
In short: as §1

[3] = tested on: Staphylococcus aureus CMX 642A; experiment: In vitro agar dilution MIC, organism code DD; details: Table 1B, unit assumed
In short: as §1

[4] = tested on: Streptococcus pyogenes PIU 2548; experiment: In vitro agar dilution MIC, organism code NN; details: Table 1B, unit assumed
In short: as §1

[5] = tested on: Streptococcus agalactiae CMX 508; experiment: In vitro agar dilution MIC, organism code KK; details: Table 1B, unit assumed
In short: as §1

[6] = tested on: Micrococcus luteus ATCC 4698; experiment: In vitro agar dilution MIC, organism code PP; details: Table 1B, in µg/mL (unit assumed)
In short: as §1

[7] = tested on: Escherichia coli SS; experiment: In vitro agar dilution MIC, organism code RR; details: Table 1B, in µg/mL (unit assumed)
In short: as §1

[8] = tested on: Mycobacterium smegmatis ATCC 114; experiment: In vitro agar dilution MIC, organism code UU; details: Table 1B, in µg/mL (unit assumed)
In short: as §1

[9] = tested on: Streptococcus pneumoniae GYR 1171; experiment: In vitro agar dilution MIC, organism code YY; details: Table 1B, unit assumed
In short: as §1

[10] = tested on: Staphylococcus aureus CMX 553; experiment: In vitro agar dilution MIC, organism code FF; details: Table 1B, unit assumed
In short: as §1

[11] = tested on: Escherichia coli DC-2; experiment: In vitro agar dilution MIC, organism code SS; details: Table 1B, unit assumed
In short: as §1

[12] = tested on: Streptococcus pyogenes 930; experiment: In vitro agar dilution MIC, organism code MM; details: Table 1B, unit assumed
In short: as §1

[13] = tested on: Streptococcus pneumoniae 5649; experiment: In vitro agar dilution MIC, organism code ZZA; details: Table 1B, unit assumed
In short: as §1

[14] = tested on: Streptococcus bovis A-5169; experiment: In vitro agar dilution MIC, organism code JJ; details: Table 1B, unit assumed
In short: as §1

[15] = tested on: Staphylococcus epidermidis 3519; experiment: In vitro agar dilution MIC, organism code HH; details: Table 1B, in µg/mL (unit assumed)
In short: as §1

[16] = tested on: Staphylococcus aureus NCTC10649M; experiment: In vitro agar dilution MIC, organism code EE; details: Table 1B, unit assumed
In short: as §1

[17] = tested on: Nocardia asteroides ATCC 9970; experiment: In vitro agar dilution MIC, organism code VV; details: Table 1B, in µg/mL (unit assumed)
In short: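 Agar plates of BHI carried graded compound concentrations and were inoculated with bacterial suspensions diluted 1:100, or 1:10 for slow-growing streptococci. After 20 to 24 hours of incubation at 35-37° C, the minimum inhibitory concentration was scored visually against a compound-free plate.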

[18] = tested on: Streptococcus pyogenes EES61; experiment: In vitro agar dilution MIC, organism code LL; details: Table 1B, unit assumed
In short: as §1

[19] = tested on: Staphylococcus aureus A-5278; experiment: In vitro agar dilution MIC, organism code CC; details: Table 1B, unit assumed
In short: as §1

[20] = tested on: Haemophilis influenzae DILL AMP R; experiment: In vitro agar dilution MIC, organism code WW; details: Table 1B, unit assumed
In short: as §1

[21] = tested on: Enterococcus faecium ATCC 8043; experiment: In vitro agar dilution MIC, organism code II; details: Table 1B, unit assumed
In short: as §1

[22] = tested on: Micrococcus luteus ATCC 9341; experiment: In vitro agar dilution MIC, organism code OO; details: Table 1B, unit assumed
In short: as §1

[23] = tested on: Streptococcus pneumoniae ATCC 6303; experiment: In vitro agar dilution MIC, organism code XX; details: Table 1B, unit assumed
In short: as §1

[24] = tested on: Staphylococcus aureus A5177; experiment: In vitro agar dilution MIC, organism code BB; details: Table 1B, in µg/mL (unit assumed)
In short: as §1

[25] = tested on: Escherichia coli JUHL; experiment: In vitro agar dilution MIC, organism code QQ; details: Table 1B, in µg/mL (unit assumed)
In short: as §1

[26] = tested on: Staphylococcus aureus 1775; experiment: In vitro agar dilution MIC, organism code GG; details: Table 1B, unit assumed
In short: as §1

[27] = tested on: Candida albicans CCH 442; experiment: In vitro agar dilution MIC, organism code TT; details: Table 1B, unit assumed
In short: as §1

Q: How did the MIC [1] turn out when `C=CCO[C@]1(C)C[C@@H](C)C(=O)[C@H](C)[C@H]2NC(=O)O[C@]2(C)[C@@H](CC)OC(=O)[C@@](C)(F)C(=O)[C@H](C)[C@H]1O[C@@H]1O[C@H](C)C[C@H](N(C)C)[C@H]1O` [Example 4] was run?
A: > 128 µg/mL

Q: What about the MIC [2] of the same molecule?
A: 0.78 µg/mL (≈ 1.19 µM)

Q: What about the MIC [3] of the same molecule?
A: 0.78 µg/mL (≈ 1.19 µM)

Q: What about the MIC [4] of the same molecule?
A: 0.39 µg/mL (≈ 0.594 µM)

Q: And the MIC [5]?
A: 0.2 µg/mL (≈ 0.305 µM)

Q: What about the MIC [6] of the same molecule?
A: 0.78

Q: And the MIC [7]?
A: 0.78

Q: What about the MIC [8] of the same molecule?
A: 6.2

Q: And the MIC [9]?
A: 0.03 µg/mL (≈ 0.0457 µM)

Q: What about the MIC [10] of the same molecule?
A: 0.78 µg/mL (≈ 1.19 µM)

Q: What about the MIC [11] of the same molecule?
A: > 100 µg/mL

Q: What about the MIC [12] of the same molecule?
A: > 100 µg/mL

Q: And the MIC [13]?
A: 0.25 µg/mL (≈ 0.381 µM)

Q: What about the MIC [14] of the same molecule?
A: 0.2 µg/mL (≈ 0.305 µM)

Q: What about the MIC [15] of the same molecule?
A: 0.78

Q: What about the MIC [16] of the same molecule?
A: 0.78 µg/mL (≈ 1.19 µM)

Q: What about the MIC [17] of the same molecule?
A: 0.39

Q: What about the MIC [18] of the same molecule?
A: 0.2 µg/mL (≈ 0.305 µM)

Q: And the MIC [19]?
A: > 100 µg/mL

Q: And the MIC [20]?
A: 8 µg/mL (≈ 12.2 µM)

Q: And the MIC [21]?
A: 0.2 µg/mL (≈ 0.305 µM)

Q: What about the MIC [22] of the same molecule?
A: 0.39 µg/mL (≈ 0.594 µM)

Q: And the MIC [23]?
A: 0.06 µg/mL (≈ 0.0914 µM)

Q: And the MIC [24]?
A: 0.78

Q: What about the MIC [25] of the same molecule?
A: > 100

Q: What about the MIC [26] of the same molecule?
A: > 100 µg/mL

Q: And the MIC [27]?
A: > 100 µg/mL

Q: With `CC[C@H]1OC(=O)[C@@](C)(F)C(=O)[C@H](C)[C@@H](O[C@@H]2O[C@H](C)C[C@H](N(C)C)[C@H]2O)[C@](C)(OC/C=C/c2cnc3ccc(C=NN=C(C)C)cc3c2)C[C@@H](C)C(=O)[C@H](C)[C@H]2NC(=O)O[C@@]21C` [Example 20] as the molecule, how does the MIC [1] read?
A: 2 µg/mL (≈ 2.31 µM)

Q: What about the MIC [2] of the same molecule?
A: 0.1 µg/mL (≈ 0.115 µM)

Q: What about the MIC [3] of the same molecule?
A: 0.1 µg/mL (≈ 0.115 µM)

Q: What about the MIC [4] of the same molecule?
A: 0.2 µg/mL (≈ 0.231 µM)

Q: And the MIC [5]?
A: 0.02 µg/mL (≈ 0.0231 µM)

Q: What about the MIC [6] of the same molecule?
A: 0.1

Q: And the MIC [7]?
A: 0.78

Q: And the MIC [8]?
A: 0.78

Q: What about the MIC [9] of the same molecule?
A: 0.06 µg/mL (≈ 0.0693 µM)

Q: What about the MIC [10] of the same molecule?
A: 0.1 µg/mL (≈ 0.115 µM)

Q: What about the MIC [11] of the same molecule?
A: > 100 µg/mL

Q: What about the MIC [12] of the same molecule?
A: 1.56 µg/mL (≈ 1.8 µM)

Q: What about the MIC [13] of the same molecule?
A: 1 µg/mL (≈ 1.15 µM)

Q: And the MIC [14]?
A: 0.01 µg/mL (≈ 0.0115 µM)

Q: What about the MIC [15] of the same molecule?
A: 0.2

Q: And the MIC [16]?
A: 0.2 µg/mL (≈ 0.231 µM)

Q: What about the MIC [17] of the same molecule?
A: 0.02

Q: And the MIC [18]?
A: 0.02 µg/mL (≈ 0.0231 µM)

Q: What about the MIC [19] of the same molecule?
A: > 100 µg/mL

Q: And the MIC [20]?
A: 4 µg/mL (≈ 4.62 µM)

Q: And the MIC [21]?
A: 0.1 µg/mL (≈ 0.115 µM)

Q: What about the MIC [22] of the same molecule?
A: 0.02 µg/mL (≈ 0.0231 µM)

Q: What about the MIC [23] of the same molecule?
A: 0.125 µg/mL (≈ 0.144 µM)

Q: What about the MIC [24] of the same molecule?
A: 0.1

Q: And the MIC [25]?
A: > 100

Q: And the MIC [26]?
A: > 100 µg/mL

Q: And the MIC [27]?
A: > 100 µg/mL

Q: Which results are given for `CC[C@H]1OC(=O)[C@@](C)(F)C(=O)[C@H](C)[C@@H](O[C@@H]2O[C@H](C)C[C@H](N(C)C)[C@H]2O)[C@](C)(OC/C=C/c2cnc3ccc(C=NN)cc3c2)C[C@@H](C)C(=O)[C@H](C)[C@H]2NC(=O)O[C@@]21C` [Example 19]?
A: MIC [1]: 1 µg/mL (≈ 1.21 µM); MIC [2]: 0.1 µg/mL (≈ 0.121 µM); MIC [3]: 0.2 µg/mL (≈ 0.242 µM); MIC [4]: 0.2 µg/mL (≈ 0.242 µM); MIC [5]: 0.02 µg/mL (≈ 0.0242 µM); MIC [6]: 0.1; MIC [7]: 0.78; MIC [8]: 0.78; MIC [9]: 0.06 µg/mL (≈ 0.0726 µM); MIC [10]: 0.2 µg/mL (≈ 0.242 µM); MIC [11]: 100 µg/mL (≈ 121 µM); MIC [12]: 1.56 µg/mL (≈ 1.89 µM); MIC [13]: 0.5 µg/mL (≈ 0.605 µM); MIC [14]: ≤ 0.005 µg/mL; MIC [15]: 0.2; MIC [16]: 0.2 µg/mL (≈ 0.242 µM); MIC [17]: 0.02; MIC [18]: 0.02 µg/mL (≈ 0.0242 µM); MIC [19]: > 100 µg/mL; MIC [20]: 2 µg/mL (≈ 2.42 µM); MIC [21]: 0.05 µg/mL (≈ 0.0605 µM); MIC [22]: 0.02 µg/mL (≈ 0.0242 µM); MIC [23]: 0.06 µg/mL (≈ 0.0726 µM); MIC [24]: 0.2; MIC [25]: 100; MIC [26]: > 100 µg/mL; MIC [27]: > 100 µg/mL

Q: Which results are given for `CC[C@H]1OC(=O)[C@@](C)(F)C(=O)[C@H](C)[C@@H](O[C@@H]2O[C@H](C)C[C@H](N(C)C)[C@H]2O)[C@](C)(OC/C=C/c2cnc3ccc(C(N)=O)cc3c2)C[C@@H](C)C(=O)[C@H](C)[C@H]2NC(=O)O[C@@]21C` [Example 15]?
A: MIC [1]: 0.5 µg/mL (≈ 0.605 µM); MIC [2]: 0.05 µg/mL (≈ 0.0605 µM); MIC [3]: 0.05 µg/mL (≈ 0.0605 µM); MIC [4]: 0.1 µg/mL (≈ 0.121 µM); MIC [5]: 0.01 µg/mL (≈ 0.0121 µM); MIC [6]: 0.05; MIC [7]: 0.2; MIC [8]: 0.39; MIC [9]: ≤ 0.004 µg/mL; MIC [10]: 0.05 µg/mL (≈ 0.0605 µM); MIC [11]: 12.5 µg/mL (≈ 15.1 µM); MIC [12]: 0.1 µg/mL (≈ 0.121 µM); MIC [13]: 0.25 µg/mL (≈ 0.302 µM); MIC [14]: 0.01 µg/mL (≈ 0.0121 µM); MIC [15]: 0.05; MIC [16]: 0.05 µg/mL (≈ 0.0605 µM); MIC [17]: 0.05; MIC [18]: 0.01 µg/mL (≈ 0.0121 µM); MIC [19]: > 100 µg/mL; MIC [20]: 4 µg/mL (≈ 4.84 µM); MIC [21]: 0.05 µg/mL (≈ 0.0605 µM); MIC [22]: 0.01 µg/mL (≈ 0.0121 µM); MIC [23]: ≤ 0.004 µg/mL; MIC [24]: 0.05; MIC [25]: 25; MIC [26]: > 100 µg/mL; MIC [27]: > 100 µg/mL
